Source: patent US7683168B2, “Compositions of novel opioid compounds and method of use thereof” (priority 2005, dated 2010)
pEC50, pKi: −log10 of the molar value.

What was measured:
mouse vas deferens = experiment: electrically stimulated mouse vas deferens (MVD) ED50; type: cell-based; conditions: ED50, inhibition of electrically induced contractions
[1] = system: seizure-like convulsions in mice; experiment: mouse seizure-like convulsions; type: in vivo
Procedure: Mouse Seizure-Like Convulsions and antinociception: The central (CNS) effects of the compound were tested with central delta receptor mediated seizure-like convulsions and central mu opioid receptor mediated antinociceptive effects in mice. Male CD-1 mice (Charles River, Raleigh, N.C.) weighing 20-25 g were used to determine the seizure-like convulsion and antinociception activities for compounds.
They were then observed for seizure-like convulsions for one hour following the treatment. A seizure-like event was recorded if a mouse had uncontrollable clonic (or tonic/clonic) muscle movements that encompassed its entire body, usually followed by a brief cataleptic period. Catalepsy was determined by placing the animal's front paws on a horizontal bar held 2-3 inches from the cage floor. Cataleptic animals made no attempt to remove their paws.

human mu opioid receptor = target: T1, human mu opioid receptor (Homo sapiens, UniProt P35372); experiment: radioligand binding, human mu opioid receptor, CHO cell membranes; conditions: species not given, read-out: μ
T1 construct: purchased Perkin Elmer, Boston, Mass; 6110535; host or cells: CHO cells

human delta receptor = target: T2, human delta receptor (Homo sapiens, UniProt P41143); experiment: radioligand binding, human delta receptor, HEK-293 cell membranes; conditions: cell not marked (rat), species not given, read-out: δ
T2 construct: purchased Perkin Elmer, Boston, Mass; 6110549; host or cells: HEK-293 cells
T2 sequence (P41143 whole entry): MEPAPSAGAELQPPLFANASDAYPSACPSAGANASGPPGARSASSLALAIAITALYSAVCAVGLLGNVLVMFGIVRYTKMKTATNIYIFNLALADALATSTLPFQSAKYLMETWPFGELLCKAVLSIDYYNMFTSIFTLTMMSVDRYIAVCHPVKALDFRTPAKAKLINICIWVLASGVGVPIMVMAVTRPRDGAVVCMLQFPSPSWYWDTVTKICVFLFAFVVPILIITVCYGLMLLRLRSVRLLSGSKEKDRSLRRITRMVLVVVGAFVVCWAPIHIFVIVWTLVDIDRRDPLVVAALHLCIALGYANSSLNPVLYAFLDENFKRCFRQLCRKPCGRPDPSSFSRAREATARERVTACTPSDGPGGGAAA

T1 sequence (P35372 whole entry): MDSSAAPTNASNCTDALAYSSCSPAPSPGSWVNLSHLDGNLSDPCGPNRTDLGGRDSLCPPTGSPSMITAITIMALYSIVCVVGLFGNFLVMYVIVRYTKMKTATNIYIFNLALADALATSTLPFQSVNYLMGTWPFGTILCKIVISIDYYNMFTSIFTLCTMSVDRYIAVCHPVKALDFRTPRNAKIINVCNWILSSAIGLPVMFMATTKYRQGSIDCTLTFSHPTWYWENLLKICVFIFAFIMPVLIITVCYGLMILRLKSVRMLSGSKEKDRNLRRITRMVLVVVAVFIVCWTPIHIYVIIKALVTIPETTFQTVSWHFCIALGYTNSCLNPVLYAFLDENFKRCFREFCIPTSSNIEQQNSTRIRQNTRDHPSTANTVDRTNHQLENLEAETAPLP

Row | Structure (SMILES) | pEC50 (mouse vas deferens) | Seiz. ([1]; 20 mg/kg IV) | pKi (human mu opioid receptor) | pKi (human delta receptor) | Seiz. ([1]; 10 mg/kg IV)
1 | C[C@@H]1CN(C(c2cccc(O)c2)c2cccc(C(=O)N3CCCN(CC(=O)O)CC3)c2)[C@@H](C)CN1CC1CC1 (stereo partly drawn) | 7.19 | 0% 20 mg/kg IV | 7.48 | 8.17 | 
2 | CCOC(=O)CCCN1CCCN(C(=O)c2cccc(C(c3cccc(O)c3)N3C[C@@H](C)N(Cc4ccccc4)C[C@@H]3C)c2)CC1 (stereo partly drawn) | 7.98 |  | 8.92 | 7.30 | 30% 10 mg/kg IV
3 | C[C@@H]1CN(C(c2cccc(O)c2)c2cccc(C(=O)N3CCCN(CCCC(=O)O)CC3)c2)[C@@H](C)CN1Cc1cccc(F)c1 (stereo partly drawn) | 8.20 |  | 9.57 | 7.03 | 0% 10 mg/kg IV
4 | CCOC(=O)CCCCN1CCCN(C(=O)c2cccc(C(c3cccc(O)c3)N3C[C@@H](C)N(Cc4ccccc4)C[C@@H]3C)c2)CC1 (stereo partly drawn) | 7.95 |  | 8.20 | 8.59 | 25% 10 mg/kg IV
5 | C[C@@H]1CN(C(c2cccc(O)c2)c2cccc(C(=O)N3CCCN(CCCCC(=O)O)CC3)c2)[C@@H](C)CN1Cc1ccccc1 (stereo partly drawn) | 8.48 |  | 7.63 | 7.69 | 0% 10 mg/kg IV
6 | CCOC(=O)CCCCN1CCCN(C(=O)c2cccc(C(c3cccc(O)c3)N3C[C@@H](C)N(Cc4cccc(F)c4)C[C@@H]3C)c2)CC1 (stereo partly drawn) | 7.21 |  | 7.80 | 8.21 | 0% 10 mg/kg IV
7 | C[C@@H]1CN(C(c2cccc(O)c2)c2cccc(C(=O)N3CCCN(CCCCC(=O)O)CC3)c2)[C@@H](C)CN1Cc1cccc(F)c1 (stereo partly drawn) | 7.83 |  | 7.46 | 7.45 | 0% 10 mg/kg IV
8 | C=CCN1C[C@H](C)N(C(c2cccc(O)c2)c2cccc(C(=O)N3CCCN(CCCCCC(=O)O)CC3)c2)C[C@H]1C (stereo partly drawn) | 7.72 |  | 7.05 | 8.28 | 0% 10 mg/kg IV
9 | C=CCN1C[C@H](C)N([C@@H](c2cccc(O)c2)c2cccc(C(=O)N3CCN(C(=O)OCC)CC3)c2)C[C@H]1C [Example 57, 4-{3-[(R)-((2S,5R)-4-Allyl-2,5-dimethylpiperazin-1-yl)(3-hydroxy-phenyl)methyl]benzoyl}piperazine-1-carboxylic acid ethyl ester] | 8.29 |  | 9.10 | 9.09 | 40% 10 mg/kg IV
10 | C=CCN1C[C@H](C)N([C@@H](c2cccc(O)c2)c2cccc(C(=O)N3CCNCC3)c2)C[C@H]1C [Example 58, {3-[(R)-((2S,5R)-4-Allyl-2,5-dimethyl-piperazin-1-yl)-(3-hydroxy-phenyl)-methyl]-phenyl}-piperazin-1-yl-methanone] | 7.92 |  | 8.96 | 8.29 | 0% 10 mg/kg IV
11 | CCOC(=O)N1CCN(C(=O)c2cccc([C@H](c3cccc(O)c3)N3C[C@@H](C)N(Cc4ccccc4)C[C@@H]3C)c2)CC1 [Example 62, 4-{3-[(R)-((2S,5R)-4-Benzyl-2,5-dimethyl-piperazin-1-yl)-(3-hydroxy-phenyl)-methyl]-benzoyl}-piperazine-1-carboxylic acid ethyl ester] | 8.17 |  | 8.77 | 8.66 | 70% 10 mg/kg IV
12 | C=CCN1C[C@H](C)N([C@@H](c2cccc(O)c2)c2cccc(C(=O)N3CCN(CC(=O)OCC)CC3)c2)C[C@H]1C [Example 63, (4-{3-[(R)-((2S,5R)-4-Allyl-2,5-dimethyl-piperazin-1-yl)-(3-hydroxy-phenyl)-methyl]-benzoyl}-piperazin-1-yl)-acetic acid ethyl ester] | 8.11 |  | 9.33 | 9.36 | 20% 10 mg/kg IV
13 | C=CCN1C[C@H](C)N([C@@H](c2cccc(O)c2)c2cccc(C(=O)N3CCN(CC(=O)O)CC3)c2)C[C@H]1C [Example 64, (4-{3-[(R)-((2S,5R)-4-Allyl-2,5-dimethyl-piperazin-1-yl)-(3-hydroxy-phenyl)-methyl]-benzoyl}-piperazin-1-yl)-acetic acid] | 8.29 |  | 8.05 | 9.10 | 30% 10 mg/kg IV
14 | C=CCN1C[C@H](C)N([C@@H](c2cccc(O)c2)c2cccc(C(=O)N3CCN(CCC(=O)OCC)CC3)c2)C[C@H]1C [Example 72, 3-(4-{3-[(R)-((2S,5R)-4-Allyl-2,5-dimethyl-piperazin-1-yl)-(3-hydroxy-phenyl)-methyl]-benzoyl}-piperazin-1-yl)-propionic acid ethyl ester] | 8.10 |  | 8.62 | 9.21 | 20% 10 mg/kg IV
15 | C=CCN1C[C@H](C)N([C@@H](c2cccc(O)c2)c2cccc(C(=O)N3CCN(CCC(=O)O)CC3)c2)C[C@H]1C [Example 73, 3-(4-{3-[(R)-((2S,5R)-4-Allyl-2,5-dimethyl-piperazin-1-yl)-(3-hydroxy-phenyl)-methyl]-benzoyl}-piperazin-1-yl)-propionic acid] | 8.64 |  | 7.77 | 8.59 | 0% 10 mg/kg IV
16 | C=CCN1C[C@H](C)N([C@@H](c2cccc(O)c2)c2cccc(C(=O)N3CCN(CCCC(=O)OCC)CC3)c2)C[C@H]1C [Example 74, (4-{3-[(R)-((2S,5R)-4-Allyl-2,5-dimethyl-piperazin-1-yl)-(3-hydroxy-phenyl)-methyl]-benzoyl}-piperazin-1-yl)-butyric acid ethyl ester] | 7.63 |  | 8.71 | 6.91 | 10% 10 mg/kg IV
17 | C[C@@H]1CN([C@@H](c2cccc(O)c2)c2cccc(C(=O)N3CCN(CCCC(=O)O)CC3)c2)[C@@H](C)CN1CC1CC1 [Example 78, 4-(4-{3-[(R)-((2S,5R)-4-Cyclopropylmethyl-2,5-dimethyl-piperazin-1-yl)-(3-hydroxy-phenyl)-methyl]-benzoyl}-piperazin-1-yl)-butyric acid] | 7.57 |  | 6.71 | 7.99 | 0% 10 mg/kg IV
18 | CCOC(=O)CCCN1CCN(C(=O)c2cccc([C@H](c3cccc(O)c3)N3C[C@@H](C)N(Cc4ccccc4)C[C@@H]3C)c2)CC1 [Example 79, 4-(4-{3-[(R)-((2S,5R)-4-Benzyl-2,5-dimethyl-piperazin-1-yl)-(3-hydroxy-phenyl)-methyl]-benzoyl}-piperazin-1-yl)-butyric acid ethyl ester] | 8.40 |  | 8.89 | 8.43 | 80% 10 mg/kg IV
19 | C[C@@H]1CN([C@@H](c2cccc(O)c2)c2cccc(C(=O)N3CCN(CCCC(=O)O)CC3)c2)[C@@H](C)CN1Cc1cccc(F)c1 [Example 82, 4-(4-{3-[(R)-((2S,5R)-4-(3-Fluorobenzyl)-2,5-dimethyl-piperazin-1-yl)-(3-hydroxy-phenyl)-methyl]-benzoyl}-piperazin-1-yl)-butyric acid] | 8.58 |  | 7.86 | 7.51 | 0% 10 mg/kg IV
20 | C=CCN1C[C@H](C)N([C@@H](c2cccc(O)c2)c2cccc(C(=O)N3CCN(CCCCC(=O)OCC)CC3)c2)C[C@H]1C [Example 83, 5-(4-{3-[(R)-((2S,5R)-4-Allyl-2,5-dimethyl-piperazin-1-yl)-(3-hydroxy-phenyl)-methyl]-benzoyl}-piperazin-1-yl)-pentanoic acid ethyl ester] | 7.93 |  | 8.05 | 7.97 | 30% 10 mg/kg IV
21 | CCOC(=O)CCCCN1CCN(C(=O)c2cccc([C@H](c3cccc(O)c3)N3C[C@@H](C)N(Cc4ccccc4)C[C@@H]3C)c2)CC1 [Example 86, 5-(4-{3-[(R)-[(2S,5R)-4-Benzyl-2,5-dimethyl-piperazin-1-yl]-(3-hydroxy-phenyl)-methyl]-benzoyl}-piperazin-1-yl)-pentanoic acid ethyl ester] | 7.90 |  | 8.04 | 8.51 | 60% 10 mg/kg IV
22 | C[C@@H]1CN([C@@H](c2cccc(O)c2)c2cccc(C(=O)N3CCN(CCCCC(=O)O)CC3)c2)[C@@H](C)CN1Cc1cccc(F)c1 [Example 88, 5-(4-{3-[(R)-((2S,5R)-4-(3-Fluorobenzyl)-2,5-dimethyl-piperazin-1-yl)-(3-hydroxy-phenyl)-methyl]-benzoyl}-piperazin-1-yl)-pentanoic acid] | 8.18 |  | 6.68 | 7.77 | 0% 10 mg/kg IV
23 | C=CCN1C[C@H](C)N([C@@H](c2cccc(O)c2)c2cccc(C(=O)N3CCN(Cc4ccc(C(=O)OC)cc4)CC3)c2)C[C@H]1C [Example 91, 4-(4-{3-[(R)-((2S,5R)-4-Allyl-2,5-dimethyl-piperazin-1-yl)-(3-hydroxy-phenyl)-methyl]-benzoyl}-piperazin-1-ylmethyl)-benzoic acid methyl ester] | 7.64 |  | 8.19 | 8.57 | 70% 10 mg/kg IV
24 | C=CCN1C[C@H](C)N([C@@H](c2cccc(O)c2)c2cccc(C(=O)N3CCN(CCCCCC(=O)O)CC3)c2)C[C@H]1C [Example 94, 6-(4-{3-[(R)-((2S,5R)-4-Allyl-2,5-dimethyl-piperazin-1-yl)-(3-hydroxy-phenyl)-methyl]-benzoyl}-piperazin-1-yl)-hexanoic acid] | 8.22 |  | 7.19 | 8.60 | 0% 10 mg/kg IV
